Laboratory results as given in patent US4265901A, “2-Oxybenzimidazoline compounds” (priority 1979, dated 1981).
“And” between values parts separate entries of the source, which are not always exact repeats. Equal entries are not always repeated. Structures can show the parent of a compound that is named as a salt.

How the values were obtained:
Corn [1] = experiment: Pre-emergence herbicide test, corn; assay type: in vivo, Zea mays
Procedure: (§1) In this evaluation, each compound to be tested was dissolved in a 1:1 mixture of acetone and ethanol containing a small amount of Toximul R and Toximul S (each a sulfonate/nonionic blend produced by Stepan Chemical Company, Northfield, Illinois). The solution was then diluted with deionized water to a composition of the following concentrations, by weight: Plant species used as indicators of herbicidal activity were planted in galvanized pans (flats) 31.5 cm. long, 21.5 cm. wide, and 8.0 cm. deep. The bottoms of the flats had holes to facilitate drainage. The soil used was a 1:1 ratio by volume of masonry sand and shredded top soil. Seeds of seven indicator species were planted in rows perpendicular to the long axis of the flat, one species per row, and covered with 0.5 to 1.0 cm. of sterilized soil. Indicator species and approximate number of seeds planted were as follows: Flats that were to receive preemergence treatments were planted one day prior to, or on the same day treatments were applied. Flats that were to receive postemergence treatments were planted 9 days prior to treatment and placed in a growth chamber until the day of treatment. In the growth chamber, flats received 12 to 18 hours of light per day and were subject to temperatures of 75° to 85° F. The formulated test compound was applied uniformly to the indicator species with a modified DeVilbiss atomizer using air pressure of 3 to 5 psi. Each flat received 12.5 ml. of spray solution which was equal to 200 gallons/acre total spray volume. Plants were maintained in a greenhouse after treatment. Herbicidal effects of chemicals were evaluated by two injury rating systems 18 days after preemergence applications and 14 days after postemergence applications. The degree of plant injury was based on a 1 to 5 scale and a single numerical rating was assigned to each test species as follows: […]

Large Crabgrass [2] = experiment: Pre-emergence herbicide test, large crabgrass; assay type: in vivo, Digitaria sanguinalis
Procedure: as §1

Pigweed [3] = experiment: Pre-emergence herbicide test, pigweed; assay type: in vivo, Amaranthus retroflexus
Procedure: as §1

Foxtail [4] = experiment: Pre-emergence herbicide test, foxtail; assay type: in vivo, Setaria italica
Procedure: as §1

Velvetleaf [5] = experiment: Pre-emergence herbicide test, velvetleaf; assay type: in vivo, Abutilon theophrasti
Procedure: as §1

Zinnia [6] = experiment: Pre-emergence herbicide test, zinnia; assay type: in vivo, Zinnia elegans
Procedure: as §1

Corn [7] = experiment: Post-emergence herbicide test, corn; assay type: in vivo, Zea mays
Procedure: as §1

Large Crabgrass [8] = experiment: Post-emergence herbicide test, large crabgrass; assay type: in vivo, Digitaria sanguinalis
Procedure: as §1

Pigweed [9] = experiment: Post-emergence herbicide test, pigweed; assay type: in vivo, Amaranthus retroflexus
Procedure: as §1

Foxtail [10] = experiment: Post-emergence herbicide test, foxtail; assay type: in vivo, Setaria italica
Procedure: as §1

Velvetleaf [11] = experiment: Post-emergence herbicide test, velvetleaf; assay type: in vivo, Abutilon theophrasti
Procedure: as §1

Morning-glory = experiment: Post-emergence herbicide test, morningglory; assay type: in vivo, Ipomoea purpurea
Procedure: as §1

Zinnia [12] = experiment: Post-emergence herbicide test, zinnia; assay type: in vivo, Zinnia elegans
Procedure: as §1

Mexican bean beetle = Mexican bean beetle test; assay type: in vivo, Epilachna varivestis; conditions: 1000 ppm, 4 days; further: ranges in brackets are in %
Procedure: (§2) In this evaluation, each compound to be tested was dissolved in a 1:1 mixture of acetone and ethanol containing a small amount of Toximul R and Toximul S (each a sulfonate/nonionic blend produced by Stephan Chemical Company, Northfield, Ill.). The solution was then diluted with distilled water to a concentration of 1000 ppm of test compound.
This test was conducted with second instar larvae of Epilachna varivestis Mulsant, order Coleoptera, family Coccinellidae. Larvae for the test, of uniform size and not molting, were picked by hand from flats of Bountiful snap beans on which they were grown and were placed in 100×20 mm plastic petri dishes for testing. Five larvae were used per replicate.
Two 4- to 6-day-old Bountiful green bean primry leaves (approximately 6 sq. in. of leaf surface) were used for each replicate. Two replicates were run per compound.
[…] […] The nozzle of the atomizer was held 12 to 18 inches from the leaves and was supplied with 5-6 psi air pressure. The atomizer was rinsed with acetone after each compound was sprayed. The plants were allowed to dry. The leaves were then cut from the plants and placed in the petri dishes containing the bean beetle larvae. A small wad of wet cellucotton was added to each dish to help prevent the leaves from wilting.
After 4 days, a mortality count was made and the amount of feeding was noted. Moribund larvae were counted as dead.

Southern armyworm = Southern armyworm test; assay type: in vivo, Spodoptera eridania; conditions: 1000 ppm, 4 days; on Southern Armyworm Stom. (mortality rating): ranges in brackets are in %
Procedure: as §2
This test was conducted with second to third instar larvae of Spodoptera eridania Cramer, Order Lepidoptera, Family Noctuidae. Uniform larvae (3rd instar) about 1 to 1.2 cm. in length were picked by hand from flats of Henderson lima beans and placed in plastic petri dishes.
The procedure otherwise was the same as used with the Mexican bean beetle reported above, except that 5 ml. of a formulation containing 100 ppm (0.01%) DDT [1,1,1-trichloro-2,2-bis(p-chlorophenyl)ethane] was used as the reference standard.

`O=[N+]([O-])c1cc(Cl)cc2c1NC(O)(C(F)F)N2` (centres unmarked) [Example 5, 2-Hydroxy-2-(Difluoromethyl)-4-Nitro-6-Chlorobenzimidazoline, Calcium Salt] was tested, and the plant injury rating (Corn [1]; 8 lb/A) was 1 (no injury), the plant injury rating (Large Crabgrass [2]; 8 lb/A) was 3RS and the plant injury rating (Pigweed [3]; 8 lb/A) was 2S. It also gave a plant injury rating (Foxtail [4]; 8 lb/A) of 3R, a plant injury rating (Velvetleaf [5]; 8 lb/A) of 3RS and a plant injury rating (Zinnia [6]; 8 lb/A) of 4R. The plant injury rating (Corn [7]; 1 lb/A) was 1 (no injury), the plant injury rating (Corn [7]; 2 lb/A) was 2B and the plant injury rating (Corn [7]; 4 lb/A) was 4BS. For the same molecule, the plant injury rating (Corn [7]; 8 lb/A) was 5D, the plant injury rating (Large Crabgrass [8]; 1 lb/A) was 3BS and the plant injury rating (Large Crabgrass [8]; 2 lb/A) was 3BS. For the same molecule, the plant injury rating (Large Crabgrass [8]; 4 lb/A) was 4BS, the plant injury rating (Large Crabgrass [8]; 8 lb/A) was 4BS and the plant injury rating (Pigweed [9]; 1 lb/A) was 2S. It also gave a plant injury rating (Pigweed [9]; 2 lb/A) of 3BS, a plant injury rating (Pigweed [9]; 4 lb/A) of 3BS and a plant injury rating (Pigweed [9]; 8 lb/A) of 4BS. The plant injury rating (Foxtail [10]; 1 lb/A) was 4BS, the plant injury rating (Foxtail [10]; 2 lb/A) was 4BS and the plant injury rating (Foxtail [10]; 4 lb/A) was 3BS. The plant injury rating (Foxtail [10]; 8 lb/A) was 5D, the plant injury rating (Velvetleaf [11]; 1 lb/A) was 3BS and the plant injury rating (Velvetleaf [11]; 2 lb/A) was 3BS. It also gave a plant injury rating (Velvetleaf [11]; 4 lb/A) of 4BS, a plant injury rating (Velvetleaf [11]; 8 lb/A) of 5D and a plant injury rating (Morning-glory; 1 lb/A) of 2BS. It also gave a plant injury rating (Morning-glory; 2 lb/A) of 2BS, a plant injury rating (Morning-glory; 4 lb/A) of 3BS and a plant injury rating (Morning-glory; 8 lb/A) of 4BS. The plant injury rating (Zinnia [12]; 1 lb/A) was 3BS, the plant injury rating (Zinnia [12]; 2 lb/A) was 3BS and the plant injury rating (Zinnia [12]; 4 lb/A) was 4BS. The plant injury rating (Zinnia [12]; 8 lb/A) was 5D, the “Mexican Bean Beetle Stom. (mortality rating)” value (Mexican bean beetle) was 3 (100) and the “Southern Armyworm Feed. (feeding rating)” value (Southern armyworm) was 1 (1-50% of the leaves eaten). For the same molecule, the “Southern Armyworm Stom. (mortality rating)” value (Southern armyworm; Calcium Salt) was 3 (100) and 2 (51-99).

For `O=[N+]([O-])c1cc(C(F)(F)F)cc2c1NC(O)(C(F)(F)C(F)F)N2O` (centres unmarked) [Example 12, 1,2-Dihydroxy-2-(1,1,2,2-Tetrafluoroethyl)-4-Nitro-6-(Trifluoromethyl)Benzimidazoline], the plant injury rating (Corn [1]; 1/2 lb/A) was 1 (no injury), the plant injury rating (Corn [1]; 1 lb/A) was 1 (no injury) and the plant injury rating (Corn [1]; 2 lb/A) was 1 (no injury). For the same molecule, the plant injury rating (Corn [1]; 8 lb/A) was 1 (no injury), the plant injury rating (Large Crabgrass [2]; 1/2 lb/A) was 1 (no injury) and the plant injury rating (Large Crabgrass [2]; 1 lb/A) was 2S. For the same molecule, the plant injury rating (Large Crabgrass [2]; 2 lb/A) was 4SB, the plant injury rating (Large Crabgrass [2]; 8 lb/A) was 4RS and the plant injury rating (Pigweed [3]; 1/2 lb/A) was 1 (no injury). The plant injury rating (Pigweed [3]; 1 lb/A) was 3S, the plant injury rating (Pigweed [3]; 2 lb/A) was 4S and the plant injury rating (Pigweed [3]; 8 lb/A) was 5N. For the same molecule, the plant injury rating (Foxtail [4]; 1/2 lb/A) was 1 (no injury), the plant injury rating (Foxtail [4]; 1 lb/A) was 1 (no injury) and the plant injury rating (Foxtail [4]; 2 lb/A) was 1 (no injury). For the same molecule, the plant injury rating (Foxtail [4]; 8 lb/A) was 2S, the plant injury rating (Velvetleaf [5]; 1/2 lb/A) was 1 (no injury) and the plant injury rating (Velvetleaf [5]; 1 lb/A) was 1 (no injury). For the same molecule, the plant injury rating (Velvetleaf [5]; 2 lb/A) was 1 (no injury), the plant injury rating (Velvetleaf [5]; 8 lb/A) was 3BS and the plant injury rating (Zinnia [6]; 1/2 lb/A) was 1 (no injury). The plant injury rating (Zinnia [6]; 1 lb/A) was 1 (no injury), the plant injury rating (Zinnia [6]; 2 lb/A) was 1 (no injury) and the plant injury rating (Zinnia [6]; 8 lb/A) was 4RS. The plant injury rating (Corn [7]; 1/4 lb/A) was 1 (no injury), the plant injury rating (Corn [7]; 1/8 lb/A) was 1 (no injury) and the plant injury rating (Corn [7]; 1 lb/A) was 1 (no injury). The plant injury rating (Corn [7]; 2 lb/A) was 2B, the plant injury rating (Corn [7]; 8 lb/A) was 1 (no injury) and the plant injury rating (Large Crabgrass [8]; 1/4 lb/A) was 3BS. It also gave a plant injury rating (Large Crabgrass [8]; 1/8 lb/A) of 3BS, a plant injury rating (Large Crabgrass [8]; 1 lb/A) of 5D and a plant injury rating (Large Crabgrass [8]; 2 lb/A) of 5D. The plant injury rating (Large Crabgrass [8]; 8 lb/A) was 3BS, the plant injury rating (Pigweed [9]; 1/4 lb/A) was 3BS and the plant injury rating (Pigweed [9]; 1/8 lb/A) was 3BS. For the same molecule, the plant injury rating (Pigweed [9]; 1 lb/A) was 5D, the plant injury rating (Pigweed [9]; 2 lb/A) was 5D and the plant injury rating (Pigweed [9]; 8 lb/A) was 5D. It also gave a plant injury rating (Foxtail [10]; 1/4 lb/A) of 2B, a plant injury rating (Foxtail [10]; 1/8 lb/A) of 2S and a plant injury rating (Foxtail [10]; 1 lb/A) of 4BS. It also gave a plant injury rating (Foxtail [10]; 2 lb/A) of 4BS, a plant injury rating (Foxtail [10]; 8 lb/A) of 3BS and a plant injury rating (Velvetleaf [11]; 1/4 lb/A) of 2B. It also gave a plant injury rating (Velvetleaf [11]; 1/8 lb/A) of 2SB, a plant injury rating (Velvetleaf [11]; 1 lb/A) of 4BS and a plant injury rating (Velvetleaf [11]; 2 lb/A) of 4BS. For the same molecule, the plant injury rating (Velvetleaf [11]; 8 lb/A) was 4BS, the plant injury rating (Morning-glory; 1/4 lb/A) was 1 (no injury) and the plant injury rating (Morning-glory; 1/8 lb/A) was 1 (no injury). For the same molecule, the plant injury rating (Morning-glory; 1 lb/A) was 3BS, the plant injury rating (Morning-glory; 2 lb/A) was 3BS and the plant injury rating (Morning-glory; 8 lb/A) was 2B. The plant injury rating (Zinnia [12]; 1/4 lb/A) was 3B, the plant injury rating (Zinnia [12]; 1/8 lb/A) was 2B and the plant injury rating (Zinnia [12]; 1 lb/A) was 5D. The plant injury rating (Zinnia [12]; 2 lb/A) was 5D, the plant injury rating (Zinnia [12]; 8 lb/A) was 4BS and the “Mexican Bean Beetle Stom. (mortality rating)” value (Mexican bean beetle) was 3 (100). The “Southern Armyworm Stom. (mortality rating)” value (Southern armyworm) was 0 (0).
